According to patent publication US5877019A, “Animal 2-5A-dependent RNases and encoding sequences therefor” (Cleveland Clinic Foundation, priority 1996, dated 1999):
“Also recorded” adds a separate entry of the source.

How the values were obtained:
[1] = system: human 2-5A-dependent RNase; conditions: purified enzyme, poly(rU) substrate; for concentration giving maximal activation of 2-5A-dependent RNase: 30 minutes 30° C.
Experimental: Assays were with 50 ng of superose 12 purified fractions of the 2-5A-dependent RNase at 30° C. for 30 minutes using 12 nM poly(rU)-^32 P[Cp] as substrate.
To determine the structural requirement of 2-5A required for activation of 2-5A-dependent RNase, ribonuclease activity against poly(rU) was determined as a function of oligonucleotide concentration. The purified 2-5A-dependent RNase was used in these assays.
(§3) RNA and DNA molecules used were poly(rU), poly(A), poly(G), poly(C), or poly(dT) from Pharmacia and were labeled at their 3'-termini with ^32 P-pCp (3,000 Ci per mmole) and T4 RNA ligase as described previously (Silverman, R. H., Anal. Biochem. 144, 450-460 1985). Fractions containing 2-5A-dependent RNase were incubated in the presence or absence of 100 nM of p3 (A2'p)3 A (or other oligonucleotides), 8 to 16 nM of ^32 P-labeled RNA in final volumes of 25 μls at 30° C. The trichloracetic acid-insoluble fraction of RNA was then determined by filtering on glass-fiber filters in the presence of carrier yeast tRNA as described previously (Silverman, R. H., Anal. Biochem. 144, 450-460 1985).

[2] = biological target: T1, 2-5A-dependent RNase (Homo sapiens, UniProt Q05823); test: Divalent cation and ATP effects on 2-5A-dependent RNase activity of dialyzed enzyme; type: biochemical; conditions: EDTA/EGTA buffer
T1 sequence (Q05823 1-741): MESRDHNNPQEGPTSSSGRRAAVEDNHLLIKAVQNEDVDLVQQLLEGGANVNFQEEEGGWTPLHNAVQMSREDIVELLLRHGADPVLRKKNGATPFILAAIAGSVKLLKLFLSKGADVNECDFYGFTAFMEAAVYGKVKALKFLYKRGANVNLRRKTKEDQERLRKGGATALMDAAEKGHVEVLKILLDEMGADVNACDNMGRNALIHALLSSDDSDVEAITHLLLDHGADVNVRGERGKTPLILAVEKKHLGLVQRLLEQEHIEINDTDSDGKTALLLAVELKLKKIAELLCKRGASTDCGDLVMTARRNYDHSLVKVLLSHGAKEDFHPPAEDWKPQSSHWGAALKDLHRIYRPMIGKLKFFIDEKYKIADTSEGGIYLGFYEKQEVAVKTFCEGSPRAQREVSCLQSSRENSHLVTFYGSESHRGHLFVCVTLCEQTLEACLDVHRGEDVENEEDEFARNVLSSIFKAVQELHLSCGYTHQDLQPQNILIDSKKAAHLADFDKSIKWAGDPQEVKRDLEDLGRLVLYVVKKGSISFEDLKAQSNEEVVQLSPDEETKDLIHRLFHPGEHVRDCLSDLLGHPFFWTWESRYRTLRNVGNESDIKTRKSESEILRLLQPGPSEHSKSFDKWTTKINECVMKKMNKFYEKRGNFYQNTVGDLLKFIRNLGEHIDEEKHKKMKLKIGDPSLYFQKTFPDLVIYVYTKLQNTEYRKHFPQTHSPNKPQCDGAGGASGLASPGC
Experimental: (§1) The divalent cation requirements of 2-5A-dependent RNase were determined after extensive dialysis against buffer containing both EDTA and EGTA. More particularly, purified 2-5A-dependent RNase (about 100 μg in 100 μl), post-mono Q column fraction, was dialyzed at 4° C. against 25 mM Tris-HCl (pH 7.4), 2.5 mM EDTA, 2.5 mM EGTA, 14 mM 2-mercaptoethanol, and 100 mM KCl (first against 400 ml for four hours, then against 600 ml for ten hours, and finally against 200 ml of reaction buffer (EDTA and EGTA were reduced to 0.5 mM) for another four hours.
(§2) Activity assays were also performed in the presence of EDTA/EGTA to ensure the chelation of metal ions present in the reagents. […] For the filter binding assay, a ^32 P-labeled and bromine substituted 2-5A analog, p(A2'p)2 (br^8 A2'p)2 A3'-32P]Cp, 10,000 counts per minute per assay, at about 3,000 Ci per mmole, was incubated with fractions containing 2-5A-dependent RNase (or controls) at 4° C. for one hour.

[3] = biological target: T1, 2-5A-dependent RNase; test: Divalent cation and ATP effects on 2-5A binding activity of dialyzed enzyme; conditions: EDTA/EGTA buffer
Experimental: as §1, §2

[4] = system: human recombinant 2-5A-dependent RNase; test: 2-5A-dependent ribonuclease assay, crude extract of recombinant baculovirus-infected insect cells, poly(rU) degradation; conditions: activator at 100 nM, thirty minutes
Experimental: Crude cell extracts, containing 2 μg of protein, were incubated with 12 nM poly(rU)-^32 p[Cp] for 30 minutes at 30° C. in the presence of absence of 100 nM of tetramer 2-5A. RNA degradation was determined by measuring acid-insoluble fraction of RNA as described (Silverman, R. H. Anal. Biochem., 144:450-460 1985).
To measure the catalytic activity of the recombinant enzyme, ribonuclease assay was performed in the presence and absence of trimer 2-5A, p3 (A2'p)2 A. The degradation of radiolabeled poly(rU) to acid-soluble fragments was measured in this assay (Silverman, R. H., Anal. Biochem. 144,450-460 1985).
as §3

[5] = system: murine 2-5A-dependent RNase; test: UV covalent crosslinking of 32P-2-5A probe in presence of unlabeled oligonucleotide competitors; type: binding; conditions: for competition with binding of the 2-5A probe: competitor 100 nM, recombinant 74 kDa protein (clone ZB1) in wheat germ extract, similar profile for L929 cell enzyme; for concentration of competitor that prevents 2-5A probe binding: probe 2.4 nM, both truncated recombinant (ZB1) and naturally occurring L cell protein
Experimental: FIG. 2A is a specific affinity of truncated murine 2-5A-dependent RNase for 2-5A. UV covalent crosslinking of the ^32 P-2-5A probe (lanes 1-7) to protein is performed after translation reactions in wheat germ extract (5 μl) with murine 2-5A-dependent RNase mRNA (from clone ZB1) (lanes 1-3) or without added RNA (lane 4) or in extract of interferon treated mouse L cells (100 μg of protein) (lanes 5-7). Reactions are without added competitor (lanes 1, 4, and 5) or in the presence of either trimer core. […] Lanes 8 and 9 are produced by incubating the wheat germ extract with ^35 S-methionine in the absence or presence of 2-5A-dependent RNase mRNA, respectively.
Autoradiograms of the dried SDS/10% polyacrylamide gels are shown. Concentrations of the oligonucleotide competitors are indicated. I is inosine.
The synthesis of the 2-5A probe, p(A2'p)2 (br^8 A2'p)2 A[32P]Cp, and its crosslinking to 2-5A-dependent RNase is performed exactly as described. See Nolan-Sorden, N. L. et al., Anal. Biochem., 184:298-304 (1990). Briefly, the 2-5A probe, about 0.7 to 2.5 nM at […], is incubated for about one hour on ice with cell extract prepared as described, Silverman, R. H. and Krause, D., I.R.L. Press, Oxford. England, pp. 149-193 (1987), in the absence or presence of unlabeled oligonucleotide competitors. Covalent crosslinking is done under a uv lamp (308 nm) for one hour on ice and the proteins are separated on SDS/10% polyacrylamide gels. Filter assays for 2-5A binding activity using the 2-5A probe for about one hour on ice, as described in Knight, M. et al., Nature, 288:189-192 (1980).

[6] = system: human 2-5A-dependent RNase; test: UV covalent crosslinking of 2-5A probe in presence of competitors; type: binding; conditions: competitor 100 nM; recombinant human enzyme in wheat germ extract; same pattern in HeLa cell extract
Experimental: FIG. 5A is specific affinity of recombinant human 2-5A-dependent RNase for 2-5A. Crosslinking of the 2-5A probe (lanes 1-7) to protein is performed after translation reactions in wheat germ extract (5 μl) with human 2-5A-dependent RNase mRNA (lanes 1-3) or without added RNA (lane 4) or in extract of human interferon α treated (1000 units per ml for 16 h) human HeLa cells (350 μg of protein) (lanes 5-7). […] Incubations with ^35 S-methionine are shown in lanes 8 to 12. Lane 8 is with wheat germ extract and human 2-5A-dependent RNase mRNA. Reticulocyte lysate preadsorbed to 2-5A-cellulose is incubated with human 2-5A-dependent RNase mRNA in the absence (lane 9) or presence (lane 10) of cycloheximide, or in the absence of added mRNA (lane 11). […] The positions and relative molecular masses (in kDa) of the marker proteins are indicated.
The synthesis of the 2-5A probe, p(A2'p)2 (br^8 A2'p)2 A[32P]Cp, and its crosslinking to 2-5A-dependent RNase is performed exactly as described. See Nolan-Sorden, N. L. et al., Anal. Biochem., 184:298-304 (1990). Briefly, the 2-5A probe, about 0.7 to 2.5 nM at […], is incubated for about one hour on ice with cell extract prepared as described, Silverman, R. H. and Krause, D., I.R.L. Press, Oxford. England, pp. 149-193 (1987), in the absence or presence of unlabeled oligonucleotide competitors. […]

[7] = system: 2-5A probe; test: 2-5A binding activity of nested 3'-deletion clones (filter binding and uv crosslinking); conditions: protein expressed in wheat germ extract
Description: See Example and Knight et al. (1980). The positions of the P-loop motifs and the lengths of the translation products are indicated. Clone ZB1 encodes for amino acids designated as 1-656 in Table II, except for the last 5 amino acid residues which are Lys, Pro, Leu, Ser, and Gly. Clone ZB2 encodes for amino acids designated as 1-619 in Table II. Clone ZB3 encodes for amino acids designated as 1-515 in Table II. Clone ZB5 encodes for amino acids designated as 1-474 in Table II. Clone ZB9 encodes for amino acids designated as 1-403 in Table II. Clone ZB10 encodes for amino acids designated as 1-365 in Table II. Clone ZB13 encodes for amino acids designated as 1-294 in Table II. Clone ZB14 encodes for amino acids designated as 1-265 in Table II. Clone ZB15 encodes for amino acids designated as 1-218 in Table II.
To further define sequences involved in 2-5A binding, nested 3'-deletions of the murine 2-5A-dependent RNase cDNA, clone ZB1, are constructed, transcribed in vitro, and expressed in a wheat germ extract. […] The levels of 2-5A binding activity are determined with the 2-5A probe in both a filter binding assay, Knight, M. et al., Nature, 288:189-192 (1980), and the uv crosslinking assay, Nolan-Sorden, N. L. et al., Anal. Biochem., 184:298-304 (1990), with similar results. Expression of clone ZB11, encoding amino acid residues 1 to 342, results in a loss of only about 26% of the 2-5A binding activity as compared to clone ZB1 (amino acids 1 to 656). Clones intermediate in length between ZB1 and ZB11 all result in significant levels of 2-5A binding activity. […] See also Saraste, M. et al., TIBS, 14:430-434 (1990).
The set of nested 3'-deletions of the truncated murine 2-5A-dependent RNase cDNA, ZB1, is generated with exonuclease III/S1 nuclease digestion followed by filling-in with Klenow DNA Polymerase using the "Erase-A-Base"system (Promega).
The synthesis of the 2-5A probe, p(A2'p)2 (br^8 A2'p)2 A[32P]Cp, and its crosslinking to 2-5A-dependent RNase is performed exactly as described. See Nolan-Sorden, N. L. et al., Anal. Biochem., 184:298-304 (1990). […]

pA(2'p5'A)3
concentration giving maximal activation of 2-5A-dependent RNase [1]: 1 nM

[Ca+2] [calcium]
effect on 2-5A-dependent RNase activity [2]: no effect; also recorded: did not enhance ribonuclease activity
effect on 2-5A-binding activity [3]: enhanced

A(2'p5'A)4
activation of 2-5A-dependent RNase (in words) [1]: enhanced activity

[Mn+2] [manganese]
effect on 2-5A-dependent RNase activity [2]: greatly stimulated
effect on 2-5A-binding activity [3]: greatly stimulated

pppA(2'p5'A)3
concentration giving maximal activation of 2-5A-dependent RNase [1]: 1 nM

p3 (A2'p)2 A
concentration giving maximal activation of 2-5A-dependent RNase [1]: 1 nM
RNA (poly(rU)) degraded [4]: 93%
competition with binding of the 2-5A probe [5]: completely prevents probe binding
concentration of competitor that prevents 2-5A probe binding [5]: about 20 nM
competition with binding of the 2-5A probe [6]: effectively competes

[Mg+2] [magnesium]
effect on 2-5A-dependent RNase activity [2]: greatly stimulated
effect on 2-5A-binding activity [3]: greatly stimulated

A(2'p5'A)3
activation of 2-5A-dependent RNase (in words) [1]: enhanced activity

[Zn+2] [zinc]
effect on 2-5A-dependent RNase activity [2]: inhibitory
effect on 2-5A-binding activity [3]: enhanced

p3 I2'pA2'pA
activation of 2-5A-dependent RNase (in words) [1]: more than ten-fold less effective
fold reduced activity as activator relative to 2-5A (5'-triphosphorylated trimer) [1]: 10 fold
concentration of competitor that prevents 2-5A probe binding [5]: about 1.0 μM

(A2'p)2 A
fold reduced activity as activator relative to 2-5A (5'-triphosphorylated trimer) [1]: more than 100 fold
fold higher concentration than trimer 2-5A required to prevent probe binding ([5]; both proteins): 500 fold
competition with binding of the 2-5A probe [5]: fails to interfere
concentration of competitor that prevents 2-5A probe binding [5]: 10 µM
competition with binding of the 2-5A probe [6]: not prevented

B1: clone ZB11: murine 2-5A-dependent RNase deletion, amino acid residues 1 to 342 (protein, UniProt Q05921 1-342, looked up, fragment)
chain: METPDYNTPQGGTPSAGSQRTVVEDDSSLIKAVQKGDVVRVQQLLEKGADANACEDTWGWTPLHNAVQAGRVDIVNLLLSHGADPHRRKKNGATPFIIAGIQGDVKLLEILLSCGADVNECDENGFTAFMEAAERGNAEALRFLFAKGANVNLRRQTTKDKRRLKQGGATALMSAAEKGHLEVLRILLNDMKAEVDARDNMGRNALIRTLLNWDCENVEEITSILIQHGADVNVRGERGKTPLIAAVERKHTGLVQMLLSREGINIDARDNEGKTALLIAVDKQLKEIVQLLLEKGADKCDDLVWIARRNHDYHLVKLLLPYVANPDTDPPAGDWSPHSSRW
loss of 2-5A binding activity as compared to clone ZB1 [7]: about 26%

B2: clone ZB15: murine 2-5A-dependent RNase deletion, amino acids 1 to 218, both P-loop motifs deleted (protein, UniProt Q05921 1-218, looked up, fragment)
chain: METPDYNTPQGGTPSAGSQRTVVEDDSSLIKAVQKGDVVRVQQLLEKGADANACEDTWGWTPLHNAVQAGRVDIVNLLLSHGADPHRRKKNGATPFIIAGIQGDVKLLEILLSCGADVNECDENGFTAFMEAAERGNAEALRFLFAKGANVNLRRQTTKDKRRLKQGGATALMSAAEKGHLEVLRILLNDMKAEVDARDNMGRNALIRTLLNWDCENV
2-5A binding activity, % of the activity of clone ZB1 [7]: completely lacking

B3: clone ZB13: murine 2-5A-dependent RNase deletion, amino acids 1 to 294 (protein, UniProt Q05921 1-294, looked up, fragment)
chain: METPDYNTPQGGTPSAGSQRTVVEDDSSLIKAVQKGDVVRVQQLLEKGADANACEDTWGWTPLHNAVQAGRVDIVNLLLSHGADPHRRKKNGATPFIIAGIQGDVKLLEILLSCGADVNECDENGFTAFMEAAERGNAEALRFLFAKGANVNLRRQTTKDKRRLKQGGATALMSAAEKGHLEVLRILLNDMKAEVDARDNMGRNALIRTLLNWDCENVEEITSILIQHGADVNVRGERGKTPLIAAVERKHTGLVQMLLSREGINIDARDNEGKTALLIAVDKQLKEIVQLLLE
2-5A binding activity, % of the activity of clone ZB1 [7]: about 38.3%
